In US10203330B2, “Methods and materials for identifying and treating mammals having lung adenocarcinoma characterized by neuroendocrine differentiation” (Mayo Foundation for Medical Education and Research, priority 2013, dated 2019):
Entries after “also recorded” stand apart in the source; their conditions may differ.

Key:
Assay type in all cases: cell-based
[1] = test system: A549 cells and A549-ASCL1 cells; assay: Clonogenic number of A549 and A549-ASCL1 cells after cisplatin treatment; details: ASCL1 over-expressing cells versus cells not expressing ASCL1; 0, 3 or 9 μM cisplatin for 14 days, FIG. 15
ASCL1 = ASCL1 knock down in HCC1833 cells, ASCL1 and RET expression; details: HCC1833 cells transfected with the construct, FIG. 13 left
From the text: Two cell lines are used to confirm the effectiveness of drugs for treating lung adenocarcinoma characterized by neuroendocrine differentiation. The first is the HCC1833 cell line, which was derived from lung AD and has high expression levels of ASCL1 and RET. The second in the A549 cell line which has low endogenous expression of ASCL1 and is stably transfected with ASCL1 (A549-As^+). A549-As^+ captures salient features of ASCL1^+ lung AD from patients, including increased expression of RET. HCC1833 are stably transfected with ASCL1 siRNA to knock down ASCL1 and produce a HCC1833-AsKD cell line. Lowering ASCL1 expression leads to low levels of RET expression.
(§1) The HCC1833 adenocarcinoma cell line expressed high endogenous levels of ASCL1 and RET (FIG. 13, left). […] In addition, STAT3 expression (in JAK/STAT3 pathway) went down.

HCC1833 cells = assay: Filling the gap scratch assay; details: HCC1833 cells transfected with ASCL1 shRNA versus wild-type and control vector cells, day 3, FIG. 14; listed as ASCL1-sh2
From the text: FIG. 14 contains photographs of cells from a filling the gap scratch assay (see, e.g., Liang et al., Nature Protocols, 2:329-333 (2007)).
as §1

| Compound | remaining clonogenic potential after cisplatin treatment [1] | ASCL1 expression (ASCL1) | RET expression (ASCL1) | ability to fill the gap (migration capacity) (HCC1833 cells) |
| --- | --- | --- | --- | --- |
| N.N.[Cl][Pt][Cl] [cisplatin] | higher than in cells that did not express ASCL1 |  |  |  |
| sh1: a small interfering RNA construct that includes: GCCAACAAGAAGATGAGTAAG (SEQ ID NO: 1) (listed as DNA, chemistry not given here) |  | reduced ASCL1 expression | reduced |  |
| sh2: a small interfering RNA construct that includes: CAACCGCGTCAAGTTGGTCAA (SEQ ID NO:2) (listed as DNA, chemistry not given here) |  | reduced ASCL1 expression | reduced | much slower ability to filling the gap; also recorded: did not fill as much of the gap |
